Experimental data as given in ChEMBL document CHEMBL5113521, “Discovery of a Novel Oral Proteasome Inhibitor to Block NLRP3 Inflammasome Activation with Anti-inflammation Activity” (J Med Chem, 2022).
Activity calls are given as the source filed them. The rule behind the calls is not given here.

Key:
[1] = Apparent volume of distribution in Sprague-Dawley rat at 0.5 mg/kg, iv measured upto 24 hrs by liquid chromatography tandem mass spectrometry; format: ADME, organism-based; settings: in vivo, read-out: Vz
Mus musculus [2] = test: Protection against DSS-induced acute colitis in C57BL/6 mouse model assessed as improvement in inflammatory cell infiltration at 0.125 to 0.5 mg/kg, po administered for 10 days by Hematoxylin and eosin staining based analysis; format: functional, organism-based; settings: dose 0.125-0.5 mg/kg, time 10.0 day
[3] = molecular target: NACHT, LRR and PYD domains-containing protein 3 (Mus musculus) (UniProt Q8R4B8); test: Inhibition of NLRP3 inflammasome activation in LPS-primed mouse J774.A1 cells assessed as inhibition of caspase-1 p20 subunit release in supernatant preincubated for 1 hr followed by nigericin stimulation measured after 1 hr by Western blot analysis; format: cell-based; settings: dose 7.5-60 nM, time 2.0 hrs, DDE = dose-dependent effect
J774.A1 [4] = test: Inhibition of NF-kappaB in LPS treated mouse J774.A1 cells assessed as reduction in NLRP3 level at 60 nM incubated for 1 hr followed by LPS stimulation measured after 5 hrs by Western blot analysis; format: cell-based; settings: time 6.0 hrs
[5] = molecular target: T1, Apoptosis-associated speck-like protein containing a CARD (Mus musculus) (UniProt Q9EPB4); test: Inhibition of ASC oligomerization in LPS stimulated mouse J774A.1 cells preincubated for 1 hr followed by nigericin stimulation by immunoblot analysis; format: cell-based; settings: J774.A1, dose 15-60 nM, DDE = dose-dependent effect
T1 sequence (whole entry): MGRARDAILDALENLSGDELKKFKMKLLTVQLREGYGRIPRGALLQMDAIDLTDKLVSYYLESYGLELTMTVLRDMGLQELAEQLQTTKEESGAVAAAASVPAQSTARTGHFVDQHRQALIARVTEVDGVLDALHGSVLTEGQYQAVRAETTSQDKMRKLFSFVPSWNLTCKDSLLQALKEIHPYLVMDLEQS

[6] = molecular target: T2, Proteasome Macropain subunit MB1 (Homo sapiens, UniProt P28074); test: Inhibition of 20S proteasome beta5 subunit (unknown origin) using Suc-LLVY-AMC as flurogenic substrate measured after 1 hr by fluorescence based analysis; settings: read-out: IC50
T2 sequence (P28074 whole entry): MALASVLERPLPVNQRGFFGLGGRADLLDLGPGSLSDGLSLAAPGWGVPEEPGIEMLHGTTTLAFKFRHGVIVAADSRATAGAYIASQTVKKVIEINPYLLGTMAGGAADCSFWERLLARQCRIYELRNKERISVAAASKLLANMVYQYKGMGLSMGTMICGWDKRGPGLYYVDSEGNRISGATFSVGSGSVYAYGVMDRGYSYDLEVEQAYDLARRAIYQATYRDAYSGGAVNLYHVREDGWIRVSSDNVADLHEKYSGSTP

[7] = Half life in Sprague-Dawley rat at 0.5 mg/kg, iv measured upto 24 hrs by liquid chromatography tandem mass spectrometry; format: ADME, organism-based; settings: in vivo
[8] = molecular target: NLR family CARD domain-containing protein 4 (Mus musculus) (UniProt Q3UP24); test: Inhibition of NLRC4 inflammasome activation in LPS-primed mouse BMDM cells assessed as reduction in IL-1beta secretion at 7.5 to 60 nM preincubated for 1 hr followed by poly (dA/dT) stimulation by ELISA; format: cell-based; settings: dose 7.5-60 nM
[9] = Oral bioavailability in Sprague-Dawley rat at 1 mg/kg measured upto 24 hrs by liquid chromatography tandem mass spectrometry; format: ADME, organism-based; settings: in vivo
[10] = Tmax in Sprague-Dawley rat at 1 mg/kg, po measured upto 24 hrs by liquid chromatography tandem mass spectrometry; format: ADME, organism-based; settings: in vivo
[11] = molecular target: NLR family CARD domain-containing protein 4 (Mus musculus) (UniProt Q3UP24); test: Inhibition of NLRC4 inflammasome activation in LPS-primed mouse BMDM cells assessed as reduction in IL-1beta secretion at 7.5 to 60 nM preincubated for 1 hr followed by FLA-ST Ultrapure stimulation by ELISA; format: cell-based; settings: dose 7.5-60 nM
Mus musculus [12] = test: Protection against DSS-induced C57BL/6 mouse ulcerative colitis model assessed as reduction in pro-IL-1 beta level in colon at 0.125 to 0.5 mg/kg, po by Western blot analysis; format: functional, organism-based; settings: dose 0.125-0.5 mg/kg
[13] = Cmax in Sprague-Dawley rat at 1 mg/kg, po measured upto 24 hrs by liquid chromatography tandem mass spectrometry; format: ADME, organism-based; parameters: dose 1 mg/kg, time < 24 hrs, route po; settings: in vivo
J774.A1 [14] = test: Inhibition of NF-kappaB in LPS treated mouse J774.A1 cells assessed as reduction in TNFalpha level at 7.5 to 60 nM incubated for 1 hr followed by LPS stimulation measured after 5 hrs by Western blot analysis; format: cell-based; settings: dose 7.5-60 nM, time 6.0 hrs
Mus musculus [15] = test: Protection against DSS-induced acute colitis in C57BL/6 mouse model assessed as improvement in goblet cell depletion at 0.125 to 0.5 mg/kg, po administered for 10 days by Hematoxylin and eosin staining based analysis; format: functional, organism-based; settings: dose 0.125-0.5 mg/kg, time 10.0 day
Mus musculus [16] = test: Anti-colitis activity against DSS-induced C57BL/6 mouse model assessed as suppression of DSS induced fecal occult blood at 0.125 to 0.5 mg/kg, po administered every 72 hrs for 10 days; format: functional, organism-based; settings: dose 0.125-0.5 mg/kg, time 10.0 day
[17] = AUC (0 to infinity) in Sprague-Dawley rat at 1 mg/kg, po measured upto 24 hrs by liquid chromatography tandem mass spectrometry; format: ADME, organism-based; parameters: dose 1 mg/kg, time < 24 hrs, route po; settings: in vivo
[18] = molecular target: NACHT, LRR and PYD domains-containing protein 3 (Mus musculus) (UniProt Q8R4B8); test: Inhibition of NLRP3 inflammasome activation in LPS-stimulated mouse J774.A1 cells assessed as blockage of NLRP3-ASC protein-protein interaction at 15 to 60 nM preincubated for 1 hr followed by nigericin stimulation by co-immunoprecipitation assay; format: cell-based; settings: dose 15-60 nM
[19] = molecular target: NACHT, LRR and PYD domains-containing protein 3 (Mus musculus) (UniProt Q8R4B8); test: Inhibition of NLRP3 inflammasome activation in LPS/nigericin stimulated mouse BMDM cells assessed as […] in ASC speck formation at 15 to 60 nM preincubated for 1 hr followed by LPS/nigericin stimulation by DAPI staining based immunofluorescence assay; format: cell-based; settings: dose 15-60 nM
[20] = molecular target: NACHT, LRR and PYD domains-containing protein 3 (Mus musculus) (UniProt Q8R4B8); test: Inhibition of NLRP3 inflammasome activation in LPS-primed mouse J774.A1 cells assessed as inhibition of IL-1 beta release in supernatant preincubated for 1 hr followed by nigericin stimulation measured after 1 hr by Western blot analysis; format: cell-based; settings: dose 7.5-60 nM, time 2.0 hrs, DDE = dose-dependent effect
Mus musculus [21] = species: Mus musculus; test: Protection against DSS-induced C57BL/6 mouse ulcerative colitis model assessed as reduction in IL-1 beta in colon homogenate by ELISA; format: functional, organism-based; settings: dose 0.125-0.5 mg/kg, route po, DDE = dose-dependent effect
[22] = molecular target: NACHT, LRR and PYD domains-containing protein 3 (Mus musculus) (UniProt Q8R4B8); test: Inhibition of NLRP3 inflammasome activation in LPS-stimulated mouse J774.A1 cells assessed as increase in polyubiquitinated NLRP3 preincubated for 1 hr followed by nigericin stimulation measured after 1 hr by immunoblot analysis; format: cell-based; settings: dose 7.5-60 nM, time 2.0 hrs, DDE = dose-dependent effect
[23] = AUC (0 to infinity) in Sprague-Dawley rat at 0.5 mg/kg, iv measured upto 24 hrs by liquid chromatography tandem mass spectrometry; format: ADME, organism-based; parameters: time < 24 hrs, dose 0.5 mg/kg, route iv; settings: in vivo
Mus musculus [24] = test: Anti-colitis activity against DSS-induced ulcerative colitis C57BL/6J mouse assessed as reduction in colon length decrease at 0.125 to 0.5 mg/kg, po administered every 72 hrs for 10 days; format: functional, organism-based; settings: dose 0.125-0.5 mg/kg, time 10.0 day
[25] = Half life in Sprague-Dawley rat at 1 mg/kg, po measured upto 24 hrs by liquid chromatography tandem mass spectrometry; format: ADME, organism-based; settings: in vivo

Chain of NACHT, LRR and PYD domains-containing protein 3 (Mus musculus) (Q8R4B8 whole entry, the tested form may be a part): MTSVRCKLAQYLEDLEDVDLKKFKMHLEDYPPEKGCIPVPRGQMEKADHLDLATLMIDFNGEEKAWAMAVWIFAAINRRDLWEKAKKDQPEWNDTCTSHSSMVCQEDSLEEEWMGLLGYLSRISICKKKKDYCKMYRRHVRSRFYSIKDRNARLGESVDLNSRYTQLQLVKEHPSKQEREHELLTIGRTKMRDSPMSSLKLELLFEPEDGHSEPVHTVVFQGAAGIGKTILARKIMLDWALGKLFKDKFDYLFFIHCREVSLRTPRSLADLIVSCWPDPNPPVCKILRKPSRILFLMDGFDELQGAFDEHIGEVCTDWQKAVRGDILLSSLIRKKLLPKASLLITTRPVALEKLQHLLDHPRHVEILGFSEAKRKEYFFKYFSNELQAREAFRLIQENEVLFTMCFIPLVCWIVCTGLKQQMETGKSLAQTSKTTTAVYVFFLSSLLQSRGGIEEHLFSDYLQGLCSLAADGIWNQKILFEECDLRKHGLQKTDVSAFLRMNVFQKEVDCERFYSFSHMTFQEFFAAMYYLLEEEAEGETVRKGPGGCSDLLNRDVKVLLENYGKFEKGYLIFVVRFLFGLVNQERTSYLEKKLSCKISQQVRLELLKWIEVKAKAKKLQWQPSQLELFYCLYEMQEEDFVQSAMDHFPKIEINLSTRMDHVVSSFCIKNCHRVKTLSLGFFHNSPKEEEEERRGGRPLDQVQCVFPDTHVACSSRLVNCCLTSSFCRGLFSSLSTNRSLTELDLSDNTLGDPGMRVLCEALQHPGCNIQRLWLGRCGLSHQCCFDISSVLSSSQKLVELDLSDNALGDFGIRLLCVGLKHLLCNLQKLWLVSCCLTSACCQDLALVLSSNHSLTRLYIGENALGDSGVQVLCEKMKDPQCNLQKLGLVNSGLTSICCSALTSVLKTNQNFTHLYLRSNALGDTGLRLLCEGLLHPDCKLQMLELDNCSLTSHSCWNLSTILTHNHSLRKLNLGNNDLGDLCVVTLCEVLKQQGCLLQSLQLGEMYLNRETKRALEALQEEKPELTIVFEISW
Chain of NLR family CARD domain-containing protein 4 (Mus musculus) (Q3UP24 whole entry, the tested form may be a part): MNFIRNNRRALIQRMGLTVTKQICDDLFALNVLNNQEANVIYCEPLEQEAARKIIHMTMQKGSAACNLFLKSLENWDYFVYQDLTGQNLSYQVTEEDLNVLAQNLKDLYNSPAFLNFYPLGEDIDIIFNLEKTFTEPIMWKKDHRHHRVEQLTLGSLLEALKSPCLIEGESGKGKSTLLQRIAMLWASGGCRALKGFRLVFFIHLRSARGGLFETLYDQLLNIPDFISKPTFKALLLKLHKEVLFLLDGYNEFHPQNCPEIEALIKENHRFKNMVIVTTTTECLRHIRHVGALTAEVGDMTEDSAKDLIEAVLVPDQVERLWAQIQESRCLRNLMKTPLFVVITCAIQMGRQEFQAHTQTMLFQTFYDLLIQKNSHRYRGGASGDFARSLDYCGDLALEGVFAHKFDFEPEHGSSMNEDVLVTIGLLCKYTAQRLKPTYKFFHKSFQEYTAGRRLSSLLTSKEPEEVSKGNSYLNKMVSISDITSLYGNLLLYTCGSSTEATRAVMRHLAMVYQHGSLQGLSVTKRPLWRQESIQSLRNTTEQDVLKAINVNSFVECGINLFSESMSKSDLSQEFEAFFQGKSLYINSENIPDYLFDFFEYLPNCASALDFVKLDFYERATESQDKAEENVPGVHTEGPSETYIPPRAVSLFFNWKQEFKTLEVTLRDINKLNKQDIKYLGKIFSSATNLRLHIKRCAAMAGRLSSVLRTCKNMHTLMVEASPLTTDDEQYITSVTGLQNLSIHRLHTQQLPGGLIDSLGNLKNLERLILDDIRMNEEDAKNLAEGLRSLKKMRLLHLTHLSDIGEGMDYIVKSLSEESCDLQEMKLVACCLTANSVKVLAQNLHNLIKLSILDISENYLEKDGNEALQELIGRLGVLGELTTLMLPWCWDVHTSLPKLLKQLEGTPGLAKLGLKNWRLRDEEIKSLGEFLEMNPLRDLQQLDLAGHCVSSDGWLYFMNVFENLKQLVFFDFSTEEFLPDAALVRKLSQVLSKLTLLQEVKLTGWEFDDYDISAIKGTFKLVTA

CC(C)C[C@H](NC(=O)[C@H](Cc1ccccc1)NC(=O)c1c(F)cccc1F)B(O)O
Vd [1]: 7.7 L/kg | Activity (Mus musculus [2]): Active | inhibition [3]: Dde | inhibition (J774.A1 [4]): Active | inhibition [5]: Dde | IC50 [6]: 3.7 nM | t1/2 [7]: 4.73 h | inhibition [8]: Active | bioavailability [9]: 48.1% | Tmax [10]: 0.25 h | inhibition [11]: Active | Activity (Mus musculus [12]): Active | Cmax [13]: 208 ng/mL | inhibition (J774.A1 [14]): Active | Activity (Mus musculus [15]): Active | Activity (Mus musculus [16]): Active | AUC [17]: 489.2 ng·h/mL | inhibition [18]: Active | inhibition [19]: Active | inhibition [20]: Dde | Activity (Mus musculus [21]): Dde | Activity [22]: Dde | AUC [23]: 448.8 ng·h/mL | Activity (Mus musculus [24]): Active | t1/2 [25]: 8.36 h
